# Data taken from US8658633B2, “Methods and compositions for treating conditions of the eye” (Massachusetts Eye and Ear Infirmary, priority 2006, dated 2014).
# How the values were obtained:
# [1] = set-up: unit not given here; details: typical value, general description; cited from earlier work
# [2] = tested on: NF-kB; assay: Quantification of retinal NF-kB activation (Trans-AM transcription factor assay on retinal nuclear extract); assay type: in vivo, Brown Norway rats
# Description: (§1) Briefly, CNV membranes were induced in Brown-Norway rats using an Argon/Dye laser while either 17AAG at a total dose of approximately 2 mg or the vehicle (DMSO) was continuously administered. Verterporfin PDT was performed 14 days after CNV induction at a verterporfin dose of 3 mg/m^2, an irradiance of 600 mW/cm^2, and a fluence of 25 J/cm^2. Choroidal neovasculature closure on fluorescein angiograms was assessed 24 hours and 7 days after PDT in a masked fashion using grading standards. Retinal levels of p42/44 MAPK, HIF-1a, NF-kB, VEGF, and endostatin were assessed with a modified enzyme-linked immunoabsorbant assay (“ELISA”) method. […]
# (§2) NF-kB and HIF-1a activation was analyzed using the Trans-AM NF-kB p65/NF-kB p50 Transcription Factor Assay Kit (Active Motif North America, Carlsbad, Calif.) according to the manufacturer's instructions. Briefly, two micrograms of a retinal nuclear extract were incubated with an oligonucleotide containing the consensus binding element for each of the transcription factors analyzed bound to a 96-well plate. […] After washes, the plates were subsequently incubated with a secondary antibody conjugated to horseradish peroxidase (1:1000), and the peroxidase reaction was quantified at 450 nm with a reference wavelength of 655 nm. […]
# [3] = tested on: p42/44 MAPK; assay: Retinal p42/44 MAPK activation (modified ELISA) in laser-induced CNV rats; assay type: in vivo, Brown Norway rats
# Description: (§3) Briefly, CNV membranes were induced in Brown-Norway rats using an Argon/Dye laser while either 17AAG at a total dose of approximately 2 mg or the vehicle (DMSO) was continuously administered. Verterporfin PDT was performed 14 days after CNV induction at a verterporfin dose of 3 mg/m^2, an irradiance of 600 mW/cm^2, and a fluence of 25 J/cm^2. Choroidal neovasculature closure on fluorescein angiograms was assessed 24 hours and 7 days after PDT in a masked fashion using grading standards. Retinal levels of p42/44 MAPK, HIF-1a, NF-kB, VEGF, and endostatin were assessed with a modified enzyme-linked immunoabsorbant assay (“ELISA”) method. […] The combination of 17-allylamino-17-demethoxygeldanamycin treatment and PDT treatment was also synergistic with respect to increased endostatin levels.
# To achieve steady drug levels in the circulation of animals, 17AAG (Calbiochem EMD Biosciences, San Diego, Calif.) or the vehicle (DMSO, Sigma, St. Louis, Mo.) was administered by slow intraperitoneal release from osmotic pumps (Alzet, Cupertino, Calif.) instead of repeated intraperitoneal injections. Immediately following the induction of choroidal neovascularization, osmotic pumps (Alzet, Cupertino, Calif.) were implanted as previously described (Poulaki et al. (2002) J. Clin. Invest. 109(6): 805-15). […]
# [4] = tested on: endostatin; assay: ELISA for retinal endostatin levels in laser-induced CNV rats; assay type: in vivo, Brown Norway rats
# Description: as §1
# Each retina was homogenized in 100 μl of solution consisting of 20 mM imidazole hydrochloride, 100 mM KCl, 1 mM MgCl, 1 mM EGTA, 1% Triton, 10 mM NaF, 1 mM sodium molybdynate and 1 mM EDTA supplemented with a cocktail of protease inhibitors (Complete, Roche, Basel, Switzerland) prior to use. Samples were cleared by centrifugation for 10 min. at 13,000 rpm and assessed for protein concentration with the BCA assay (Micro BCA™ Protein Assay Kit, Pierce Co., Rockford, Ill.). […] The reaction was stopped, and the absorption was measured in an ELISA reader at 450 nm. […] The tissue sample concentration was calculated from a standard curve and corrected for protein concentration.
# [5] = tested on: HIF-1a; assay: Quantification of retinal HIF-1a activation (Trans-AM transcription factor assay on retinal nuclear extract); assay type: in vivo, Brown Norway rats
# Description: as §1, §2
# [6] = tested on: laser-induced CNV; assay: Fluorescein angiography grading of leakage and CNV closure in the rat model of laser-induced CNV; assay type: in vivo, Brown Norway rats
# Description: as §3
# All experiments adhered to the Association for Research in Vision and Ophthalmology Statement for the Use of Animals in Ophthalmic and Vision Research and the guidelines established by the Animal Care Committee of the Massachusetts Eye and Ear Infirmary. Brown Norway rats (Charles River Laboratory, Wilmington, Mass.) were anesthetized via an intramuscular injection of 50 mg/kg of ketamine hydrochloride and 10 mg/kg of xylazine. Pupils were dilated with a topical application of 5% phenylephrine and 0.8% tropicamide. […]
# Fluorescein angiography (“FA”) was performed 14 days after the initial laser treatment using a digital fundus camera system (model TRC 501A Topcon, Paramus, N.J.) and standard fluorescein filters to determine if CNV induction was successful. […] All angiograms were evaluated in masked fashion by two independent retina specialists using grading standards regarding severity of CNV (baseline FAs) and CNV closure (24 hours FAs).
# PDT with verteporfin was performed on experimental CNV. […] The body surface area of each rat was determined based on their weight according to a nomogram developed by Gilpin (Gilpin et al. (1996) Burns 22(8): 607-1 1). […]
compound,measurement,setting,value
benzoporphyrin derivative,time the photosensitizer persists in the target neovasculature,[1],about fifty
C=Cc1c(C)c2cc3nc(c(CC(=O)N[C@@H](CC(=O)O)C(=O)O)c4[nH]c(cc5nc(cc1[nH]2)C(C)=C5CC)c(C)c4C(=O)O)[C@@H](CCC(=O)O)[C@@H]3C [N-aspartyl chlorin e6],time the photosensitizer persists in the target neovasculature,[1],about twenty
"C=CCNC1=C2C[C@@H](C)C[C@H](OC)[C@H](O)[C@@H](C)/C=C(\C)[C@H](OC(N)=O)[C@@H](OC)/C=C\C=C(/C)C(=O)NC(=CC1=O)C2=O [17AAG, 17-allylamino-17-demethoxygeldanamycin]",retinal levels of NF-kB activation,"[2]; 17AAG and PDT treated animals, 1 day after PDT, PDT without 17AAG 13.7±0.3",5.9±0.045 O.D./μg tissue
same,retinal levels of NF-kB activation,"[2]; 17AAG and laser treated animals without PDT, P>0.05 vs laser treated 10.12±0.74",9.54±1.47 O.D./μg tissue
same,retinal levels of p42/44 MAPK activation,"[3]; 17AAG and PDT treated animals, 1 day after PDT, PDT without 17AAG 923±45",417±6 O.D./μg tissue
same,retinal levels of p42/44 MAPK activation,"[3]; 17AAG and laser treated animals without PDT, P>0.05 vs laser treated 603±1",560±22 O.D./μg tissue
same,retinal levels of endostatin,"[4]; 17AAG and PDT treated animals, 1 day after PDT, statistically significant vs laser treated 15.7±2.8",258±6 O.D./μg tissue
same,retinal levels of endostatin,"[4]; 17AAG and laser treated animals without PDT, P>0.05 vs laser treated 15.7±2.8",32.34±6.11 O.D./μg tissue
same,retinal levels of HIF-1a activation,"[5]; 17AAG and PDT treated animals, 1 day after PDT, PDT without 17AAG 1.69±0.38",0.946±0.06 O.D./μg tissue
same,retinal levels of HIF-1a activation,"[5]; 17AAG and laser treated animals without PDT, P>0.05 vs laser treated 1.06±0.1",1.064±0.136 O.D./μg tissue
same,lesions closed one week after PDT treatment,"[6]; grade IIB lesions, 17AAG in combination with verteporfin PDT, DMSO+PDT control 6 out of 17",12 out of the 14
same,lesions closed one day after PDT treatment,"[6]; grade IIB lesions, 17AAG in combination with verteporfin PDT, DMSO+PDT control 9 out of 17",12 out of the 14
same,lesions showing the highest grade (IIB) of leakage,"[6]; two weeks following CNV induction, 17AAG approx. 2 mg by i.p. osmotic pump, without PDT, P>0.05 vs DMSO (32 out of 53)",26 out of 47
CC(=O)[O-].CC(=O)[O-].CCc1c(CC)c2cc3nc(cnc4cc(OCCOCCOCCOC)c(OCCOCCOCCOC)cc4ncc4nc(cc1[n-]2)C(CCCO)=C4C)C(C)=C3CCCO.O.[Lu+3] [lutetium texaphyrin],time the photosensitizer persists in the target neovasculature,[1],about twenty
